Test results from PubChem BioAssay AID2305 (GlaxoSmithKline (GSK), 2010).
Where a SMILES comes first, the peptide text is derived from it.

The molecules below were run on P. falciparum 3D7 growth, pLDH absorbance (assay: blood-stage malaria parasite growth potency – strain 3D7, dose response (AID 2305)).
Molecule CCNC(=O)Nc1cccc(-c2cccc(-c3nc4c(C)cccc4[nH]3)c2)c1 has an IC50 of 1040 nM. Cc1cc(NCCc2ccccc2)nc(/N=C(\N)Nc2cccc([N+](=O)[O-])c2)n1 was tested, and the IC50 was 140 nM. For CC[C@H]1CN2CC[C@@H]1C[C@H]2[C@H](O)c1cc(-c2ccccc2)nc2ccc(O)cc12, the IC50 was 190 nM. Work on O=C(/C=C/c1ccc(Cl)c(Cl)c1)NC1CCC(CN2CCC(c3nc4ccc(O)cc4[nH]3)CC2)CC1 (configuration not stated) yielded an IC50 of 240 nM. In the case of CN1CCN(CC(=O)Nc2cccc(-c3cccc(-c4nc5ccc(C(F)(F)F)cc5[nH]4)c3)c2)CC1, the IC50 is reported as 370 nM. Molecule O=C(NCC1CCN(Cc2ccc(F)cc2)C1)c1cc(-c2cccc(C(F)(F)F)c2)cs1 (configuration not stated) has an IC50 of 960 nM. Work on CCc1cc2c3c(N)nc(N)nc3ccc2n1C(C)(C)C yielded an IC50 of 10 nM. Work on NC(=O)c1cccc(CN2Cc3ccccc3OC3(CCN(Cc4c[nH]c5cnccc45)CC3)C2)c1 yielded an IC50 of 1060 nM. Nc1cc(-c2ccc(Br)cc2O)nc2ccccc12 gave an IC50 of 620 nM. Molecule OC(CNCc1ccccc1)c1cc(OCc2ccccc2)cc(OCc2ccccc2)c1 (configuration not stated) has an IC50 of 1000 nM. For COc1ccc(CNc2nccc3ccc(-c4ccc5nccn5c4)cc23)cc1, the IC50 was 880 nM. CCCCCCNC(=O)C1Cc2c([nH]c3ccc(C)cc23)C2(CCN(CCc3ccccc3)CC2)N1 (configuration not stated) gave an IC50 of 1270 nM. In the case of CN1CCC(C(=O)N(Cc2ccc(-c3ccc(CNCCc4ccccc4)cn3)cc2)C2Cc3ccccc3C2)CC1, the IC50 is reported as 1060 nM. Work on O=C(/C=C/c1ccc(Cl)c(Cl)c1)N1CCC(CCN2CCC(c3c[nH]c4cc5c(cc34)OCO5)CC2)CC1 yielded an IC50 of 730 nM. Cc1cccc(/C=C/C(=O)NC2CCC(N3CCC(c4ccccc4C)CC3)CC2)c1 (configuration not stated) was tested, and the IC50 was 1110 nM. For CN(C)Cc1cccc(-c2ccc3ccnc(N)c3c2)c1, the IC50 was 120 nM. In the case of COc1ccc2c(=O)c(Br)c(C)[nH]c2c1, the IC50 is reported as 190 nM. With CSc1cccc(Nc2nc3ccc(S(=O)(=O)NC(C)C(C)C)cc3n2[C@H](C)C(C)(C)C)c1 (some centres not stated) the IC50 was 450 nM. For CNCCNCc1ccc(-c2ccc(-c3nc4ccc(C(F)(F)F)cc4[nH]3)cc2)cc1, the IC50 was 310 nM. Work on CC(C)CN(C)Cc1ccc(-c2ccc(-c3nc4ccccc4[nH]3)s2)cc1 yielded an IC50 of 750 nM. In the case of O=C(Nc1cccc(C2=NCCN2)c1)Nc1cccc(C2=NCCN2)c1, the IC50 is reported as 420 nM. In the case of CCc1nc2nc(C)cc(Nc3cc(C)cc(C)c3)n2n1, the IC50 is reported as 290 nM. Molecule O=C(NCCCCN1CCN(c2ccc3c(c2)CCC3)CC1)c1ccc(NC(=O)c2ccc(Cl)cc2)cc1 has an IC50 of 680 nM. C=CCNC(=O)C(C)c1ccc2cc(OC)ccc2c1 (configuration not stated) was tested, and the IC50 was 420 nM. Work on O[C@@H](c1ccccc1)[C@@H]1CN(CCC2C[C@@H]3CC[C@H]2C3)CC[C@@]1(O)c1ccccc1 (some centres not stated) yielded an IC50 of 350 nM. O=C(Nc1ccc(C(F)(F)F)cc1)c1cccc(S(=O)(=O)NC2CCN(CC3CCCCC3)C2)c1 (configuration not stated) was tested, and the IC50 was 690 nM. With Clc1ccc(C2CCN(CCCOc3ccc4c(c3)CCNCC4)CC2)cc1 the IC50 was 750 nM. For CC(C)(C)COC(=O)c1ccc(NC(=O)N[C@@H](Cc2ccc(O)cc2)C(=O)NC2CCN(Cc3ccc(O)cc3)C2)cc1 (some centres not stated), the IC50 was 670 nM. In the case of O=C(CSc1nccn1C1CCCCC1)Nc1cc(C(F)(F)F)ccc1Cl, the IC50 is reported as 400 nM. With Cc1cccc(-c2cccc(CNc3nc(NCCc4ccc(O)cc4)nc(N4CCNCC4)n3)c2)c1 the IC50 was 1190 nM. In the case of O=C(Nc1ccc(C(=O)Nc2ccc(C3=NCCN3)cc2)cc1)Nc1ccc(C2=NCCN2)cc1, the IC50 is reported as 180 nM. Molecule O=C(c1cccs1)N1CCN(c2ccc([N+](=O)[O-])c(NC3CC3)c2)CC1 has an IC50 of 770 nM. Work on CCCOc1ccc(NC(=O)c2cccs2)cc1Cl yielded an IC50 of 860 nM. For Cc1cccc2[nH]c(-c3cccc(-c4ccc(CN5CCCC5CN)cc4)c3)nc12 (configuration not stated), the IC50 was 760 nM. In the case of CCOc1ccc(-c2nonc2NC(=O)c2cccc(Cl)c2)cc1OCC, the IC50 is reported as 150 nM. Molecule Cc1[nH]c(C)c(-c2ccc(S(=O)(=O)c3ccc(Cl)cc3)cc2)c(=O)c1Br has an IC50 of 40 nM. CC(C)(CNCc1ccc(Cl)c(Cl)c1)c1nc(-c2ccc(Cl)c(O)c2)c(-c2ccncc2)[nH]1 gave an IC50 of 760 nM. Work on COc1ccc(CNCc2ccc(-c3ccc(-c4nc5ccc(C(F)(F)F)cc5[nH]4)cc3)cc2)cc1 yielded an IC50 of 130 nM. For COc1ccc2ncc(F)c(CCN3CCC4(CC3)COC(c3cc5c(cn3)OCCO5)=N4)c2n1, the IC50 was 220 nM. Work on COc1ccc2nccc([C@@H](O)CN3CCC(NCc4cc5cc(OC(F)(F)F)ccc5[nH]4)CC3)c2c1 yielded an IC50 of 130 nM. For NC1=NC(CCc2ccccc2)N(c2ccc(Cl)cc2)C(N)=N1 (configuration not stated), the IC50 was 40 nM. Cc1cccc2[nH]c(-c3ccc(-c4cccc(CNCc5ccccc5)c4)s3)nc12 showed an IC50 of 740 nM. Cc1[nH]c(C)c(-c2ccc(-c3ccccc3Cl)nc2)c(=O)c1Cl showed an IC50 of 220 nM. Molecule CCOc1cc(Cc2cnc(N)nc2N)cc(OCC)c1O has an IC50 of 1170 nM. Molecule CCN(CCO)CCc1cccc(Nc2nccc(-c3c(-c4ccc(NC(=O)C(C)(C)C)cc4)nn4ccccc34)n2)c1 has an IC50 of 710 nM. For CCc1c[nH]c2c(N3CCCC3=O)cc(C(=O)N[C@@H](Cc3ccccc3)[C@H](O)CNC3CCCCC3)cc12, the IC50 was 100 nM. With COc1ccc2ccccc2c1C=NNc1ccnc2cc(Cl)ccc12 the IC50 was 610 nM. Molecule CN1CCCN(Cc2cccc(-c3ccc(NC(=O)c4cccc(C#N)c4)cc3)c2)CC1 has an IC50 of 720 nM. CC1(C)S(=O)(=O)CC(O)CS1(=O)=O gave an IC50 of 470 nM. COc1ccc2nc(C)cc(NN=Cc3cccc(F)c3)c2c1 showed an IC50 of 290 nM. With COc1ccccc1N1CCN(Cc2c(NC(C)=O)sc(C)c2C)CC1 the IC50 was 430 nM. For COc1ccc(-c2ccc(NC(=O)c3cccc(Cl)c3)cc2)cc1CN1CCC(O)CC1, the IC50 was 710 nM. With O=C(O)CCc1ccc(-c2c[nH]c3ncc(-c4ccc5ncccc5c4)cc23)cc1 the IC50 was 300 nM. Oc1ccc(Cl)cc1CN1CCC(CCOC(c2ccccc2)c2ccccc2)CC1 was tested, and the IC50 was 650 nM. Oc1ccc(-c2ccccc2)cc1CNC1CCCCC1 showed an IC50 of 500 nM. COc1ccc(Nc2cc(C)nc(Nc3ccc(NC(C)=O)cc3)n2)cc1 was tested, and the IC50 was 860 nM. For CN1CCN(c2ccnc3ccc(NC(=O)c4ccc(Cl)c(Cl)c4)cc23)CC1, the IC50 was 710 nM. With CN1CCN(c2ccc(CNc3ccc4ncc(-c5ccc(OC(F)(F)F)cc5)n4n3)cc2)CC1 the IC50 was 830 nM. Work on Oc1ccccc1CN1CCCC(COC(c2ccc(F)cc2)c2ccc(F)cc2)C1 (configuration not stated) yielded an IC50 of 780 nM. With Cc1cc(Nc2ccc(C)c(Cl)c2)n2ncnc2n1 the IC50 was 550 nM. COc1ccc2ccc(OC)c(CNCCCCCCNCc3c(OC)ccc4ccc(OC)cc34)c2c1 was tested, and the IC50 was 700 nM. Fc1ccc2c(NN=CC=Cc3ccccc3)ccnc2c1 was tested, and the IC50 was 780 nM. In the case of N[C@@H](Cc1ccc(O)cc1)C(=O)NC(c1ccccc1)c1c(O)ccc2ccccc12 (some centres not stated), the IC50 is reported as 690 nM. Work on CC(C)(C)CCN1CCC(CNC(=O)c2cc(-c3cccc(C(F)(F)F)c3)cs2)C1 (configuration not stated) yielded an IC50 of 890 nM. COC(=O)c1cc(OC2CCOC2=O)cc2c1OC(C)(C)O2 (configuration not stated) showed an IC50 of 810 nM. In the case of O=C(/C=C/c1ccc(Cl)c(Cl)c1)NCCCCCCN1CCCN(C(=O)Nc2cccc(C(F)(F)F)c2)CC1, the IC50 is reported as 790 nM. Work on COc1ccc2cc(C(=O)NC3CCC(CCN4CCc5cc(C#N)ccc5C4)CC3)[nH]c2c1 (configuration not stated) yielded an IC50 of 1010 nM. Molecule Cc1nnsc1C(=O)Nc1cccc(-c2cccc(-c3nc4c(C)cccc4[nH]3)c2)c1 has an IC50 of 270 nM. In the case of Cc1ccc(O)cc1Nc1ccnc2ccc(-c3csc(CNCCN4CCOCC4)n3)cc12, the IC50 is reported as 150 nM. O=C(NCC(=O)N1CCC[C@H]1C(=O)O)[C@@H](Cc1ccccc1)NC(=O)[C@@H]1CCCN1C(=O)CCCc1ccc(O)cc1 (HELM PEPTIDE1{[O=C(CCCc1ccc(O)cc1)[*:2]].P.[dF].G.P}$$$$V2.0) was tested, and the IC50 was 1050 nM. COc1ccc(-c2ccc(NC(=O)c3ccc(Cl)cc3)cc2)cc1CN1CCNCC1 was tested, and the IC50 was 130 nM. With CC1Cc2ccccc2N1S(=O)(=O)c1cccc(C(=O)Nc2nc(-c3ccccn3)cs2)c1 (configuration not stated) the IC50 was 1320 nM.
